{"source": "the kinase profiling compilation of Christmann-Franck et al. (2016)", "test_in_all_cases": "KINOMEscan competition binding", "key": {"[1]": {"molecular_target": "ABL1 (human), P00519 [Q252H]"}, "[2]": {"molecular_target": "ABL2 (human) (UniProt P42684)"}, "[3]": {"molecular_target": "BLK (human) (UniProt P51451)", "sequence (P51451 whole entry, looked up)": "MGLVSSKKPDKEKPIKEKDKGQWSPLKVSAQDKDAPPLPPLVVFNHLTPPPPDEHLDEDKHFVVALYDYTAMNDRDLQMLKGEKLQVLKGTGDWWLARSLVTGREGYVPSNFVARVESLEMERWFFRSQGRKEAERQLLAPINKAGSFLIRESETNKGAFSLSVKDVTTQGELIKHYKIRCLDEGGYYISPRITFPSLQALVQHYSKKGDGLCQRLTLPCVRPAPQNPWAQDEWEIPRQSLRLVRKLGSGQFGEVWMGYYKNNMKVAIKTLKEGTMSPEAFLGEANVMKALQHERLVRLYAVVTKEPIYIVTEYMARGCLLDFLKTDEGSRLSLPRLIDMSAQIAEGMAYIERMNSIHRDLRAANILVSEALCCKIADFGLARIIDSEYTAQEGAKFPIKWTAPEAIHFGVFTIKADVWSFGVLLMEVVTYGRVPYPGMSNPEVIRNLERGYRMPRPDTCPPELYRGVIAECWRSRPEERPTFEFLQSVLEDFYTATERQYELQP"}, "[4]": {"molecular_target": "CDC42BPA (human) (UniProt Q5VT25)"}, "[5]": {"molecular_target": "CDK11B (human) (UniProt P21127)"}, "[6]": {"molecular_target": "CDK19 (human) (UniProt Q9BWU1)"}, "[7]": {"molecular_target": "CDK3 (human) (UniProt Q00526)"}, "[8]": {"molecular_target": "EPHA7 (human) (UniProt Q15375)"}, "[9]": {"molecular_target": "FGFR2 (human) (UniProt P21802)"}, "[10]": {"molecular_target": "FLT3 (human), P36888 [D835Y]"}, "[11]": {"molecular_target": "FLT3 (human), P36888 [ITD]"}, "[12]": {"molecular_target": "FLT3 (human), P36888 [N841I]"}, "[13]": {"molecular_target": "FYN (human) (UniProt P06241)"}, "[14]": {"molecular_target": "GSK3B (human) (UniProt P49841)"}, "[15]": {"molecular_target": "HIPK1 (human) (UniProt Q86Z02)"}, "[16]": {"molecular_target": "HIPK2 (human) (UniProt Q9H2X6)"}, "[17]": {"molecular_target": "HIPK4 (human) (UniProt Q8NE63)"}, "[18]": {"molecular_target": "MAP2K1 (human) (UniProt Q02750)"}, "[19]": {"molecular_target": "MAP2K2 (human) (UniProt P36507)", "sequence (P36507 whole entry, looked up)": "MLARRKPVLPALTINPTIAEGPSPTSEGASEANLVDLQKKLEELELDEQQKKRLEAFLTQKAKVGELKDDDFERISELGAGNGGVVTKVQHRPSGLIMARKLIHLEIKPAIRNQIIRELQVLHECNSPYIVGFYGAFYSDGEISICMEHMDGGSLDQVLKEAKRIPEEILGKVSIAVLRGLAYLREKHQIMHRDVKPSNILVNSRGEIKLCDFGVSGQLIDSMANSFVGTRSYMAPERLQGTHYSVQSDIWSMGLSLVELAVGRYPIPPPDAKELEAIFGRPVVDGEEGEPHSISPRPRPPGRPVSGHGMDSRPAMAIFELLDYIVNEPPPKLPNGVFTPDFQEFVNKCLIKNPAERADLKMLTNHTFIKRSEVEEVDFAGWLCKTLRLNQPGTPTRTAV"}, "[20]": {"molecular_target": "MAP3K3 (human) (UniProt Q99759)"}, "[21]": {"molecular_target": "MAP3K7 (human) (UniProt O43318)", "sequence (O43318 whole entry, looked up)": "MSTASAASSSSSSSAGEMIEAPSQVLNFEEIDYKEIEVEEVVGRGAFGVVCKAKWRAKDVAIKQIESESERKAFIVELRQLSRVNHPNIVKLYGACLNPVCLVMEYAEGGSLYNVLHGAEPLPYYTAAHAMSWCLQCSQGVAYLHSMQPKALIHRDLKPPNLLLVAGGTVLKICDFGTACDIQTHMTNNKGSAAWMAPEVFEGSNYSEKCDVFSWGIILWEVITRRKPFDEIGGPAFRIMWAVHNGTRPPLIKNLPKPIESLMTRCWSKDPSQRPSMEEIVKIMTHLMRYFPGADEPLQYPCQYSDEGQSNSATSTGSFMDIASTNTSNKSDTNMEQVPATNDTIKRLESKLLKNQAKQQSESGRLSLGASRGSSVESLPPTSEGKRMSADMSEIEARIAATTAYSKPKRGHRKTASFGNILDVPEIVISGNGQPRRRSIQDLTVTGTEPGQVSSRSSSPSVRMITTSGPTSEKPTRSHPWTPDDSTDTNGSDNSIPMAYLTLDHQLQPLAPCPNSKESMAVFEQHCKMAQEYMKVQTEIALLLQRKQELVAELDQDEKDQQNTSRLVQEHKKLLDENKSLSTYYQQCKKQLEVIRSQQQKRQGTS"}, "[22]": {"molecular_target": "MAP4K4 (human) (UniProt O95819)"}, "[23]": {"molecular_target": "MAPK13 (human) (UniProt O15264)"}, "[24]": {"molecular_target": "MAPK8 (human) (UniProt P45983)"}, "[25]": {"molecular_target": "MET (human), P08581 [M1250T]", "sequence (P08581 whole entry M1250T, looked up)": "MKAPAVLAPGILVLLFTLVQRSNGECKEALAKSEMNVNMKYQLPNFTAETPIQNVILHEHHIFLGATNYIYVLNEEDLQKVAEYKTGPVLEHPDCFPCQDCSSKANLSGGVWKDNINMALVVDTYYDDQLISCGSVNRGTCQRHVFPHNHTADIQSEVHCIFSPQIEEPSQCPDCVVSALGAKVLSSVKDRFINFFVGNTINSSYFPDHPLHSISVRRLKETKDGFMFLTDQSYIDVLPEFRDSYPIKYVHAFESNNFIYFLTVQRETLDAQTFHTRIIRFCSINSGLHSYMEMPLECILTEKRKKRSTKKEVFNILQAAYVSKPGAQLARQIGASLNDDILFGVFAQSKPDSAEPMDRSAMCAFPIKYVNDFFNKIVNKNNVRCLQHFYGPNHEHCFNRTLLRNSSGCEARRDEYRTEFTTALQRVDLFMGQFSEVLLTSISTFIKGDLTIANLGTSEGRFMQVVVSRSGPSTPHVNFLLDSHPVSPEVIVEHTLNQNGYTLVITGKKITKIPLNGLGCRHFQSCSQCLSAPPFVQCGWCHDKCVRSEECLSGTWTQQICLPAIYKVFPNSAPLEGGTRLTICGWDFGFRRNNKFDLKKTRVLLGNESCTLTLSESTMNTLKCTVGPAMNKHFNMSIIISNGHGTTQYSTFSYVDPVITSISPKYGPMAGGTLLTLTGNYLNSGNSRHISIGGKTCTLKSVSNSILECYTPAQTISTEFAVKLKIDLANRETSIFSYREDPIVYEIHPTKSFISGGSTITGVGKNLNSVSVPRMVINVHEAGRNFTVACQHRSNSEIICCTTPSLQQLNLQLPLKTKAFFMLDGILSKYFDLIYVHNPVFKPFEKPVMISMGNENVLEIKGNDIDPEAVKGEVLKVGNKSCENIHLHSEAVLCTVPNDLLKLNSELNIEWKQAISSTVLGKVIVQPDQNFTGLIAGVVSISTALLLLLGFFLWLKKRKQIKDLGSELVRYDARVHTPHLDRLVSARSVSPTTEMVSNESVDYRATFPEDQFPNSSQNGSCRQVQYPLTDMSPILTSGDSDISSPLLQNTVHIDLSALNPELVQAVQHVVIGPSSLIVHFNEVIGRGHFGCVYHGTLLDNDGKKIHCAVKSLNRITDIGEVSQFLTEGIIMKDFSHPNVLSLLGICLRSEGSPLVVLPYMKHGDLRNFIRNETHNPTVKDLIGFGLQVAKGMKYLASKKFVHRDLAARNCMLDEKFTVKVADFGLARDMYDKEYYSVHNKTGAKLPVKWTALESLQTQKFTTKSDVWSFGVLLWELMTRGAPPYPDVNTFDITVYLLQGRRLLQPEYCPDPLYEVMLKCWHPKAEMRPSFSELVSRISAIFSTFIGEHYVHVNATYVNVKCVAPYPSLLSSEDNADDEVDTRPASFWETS"}, "[26]": {"molecular_target": "MUSK (human) (UniProt O15146)"}, "[27]": {"molecular_target": "NTRK2 (human) (UniProt Q16620)"}, "[28]": {"molecular_target": "NTRK3 (human) (UniProt Q16288)", "sequence (Q16288 whole entry, looked up)": "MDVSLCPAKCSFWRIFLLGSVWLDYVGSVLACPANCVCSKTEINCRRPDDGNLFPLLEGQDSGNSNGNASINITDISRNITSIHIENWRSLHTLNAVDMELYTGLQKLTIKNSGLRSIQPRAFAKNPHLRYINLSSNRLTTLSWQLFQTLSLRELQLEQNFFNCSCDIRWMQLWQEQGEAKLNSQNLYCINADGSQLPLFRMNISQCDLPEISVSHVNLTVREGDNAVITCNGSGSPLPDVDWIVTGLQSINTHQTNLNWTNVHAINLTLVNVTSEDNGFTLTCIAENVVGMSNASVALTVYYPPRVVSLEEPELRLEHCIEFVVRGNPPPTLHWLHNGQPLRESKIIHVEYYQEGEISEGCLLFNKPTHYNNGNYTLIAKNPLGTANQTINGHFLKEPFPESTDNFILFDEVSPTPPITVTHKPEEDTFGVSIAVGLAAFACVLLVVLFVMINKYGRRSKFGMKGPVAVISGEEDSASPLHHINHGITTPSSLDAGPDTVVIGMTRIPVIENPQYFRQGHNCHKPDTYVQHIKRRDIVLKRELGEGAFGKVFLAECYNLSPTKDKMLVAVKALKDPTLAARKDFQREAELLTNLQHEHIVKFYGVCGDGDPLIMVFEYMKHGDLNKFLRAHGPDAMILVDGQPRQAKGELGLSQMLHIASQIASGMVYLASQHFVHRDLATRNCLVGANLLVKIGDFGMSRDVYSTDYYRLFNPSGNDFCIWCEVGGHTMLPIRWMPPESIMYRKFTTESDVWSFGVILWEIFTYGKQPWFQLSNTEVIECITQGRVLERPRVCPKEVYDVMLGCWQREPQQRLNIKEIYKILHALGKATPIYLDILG"}, "[29]": {"molecular_target": "PIK3CA (human), P42336 [C420R]"}, "[30]": {"molecular_target": "PIK3CA (human), P42336 [Q546K]"}, "[31]": {"molecular_target": "PRKAA2 (human) (UniProt P54646)"}, "[32]": {"molecular_target": "PRKD2 (human) (UniProt Q9BZL6)"}, "[33]": {"molecular_target": "RIPK4 (human) (UniProt P57078)"}, "[34]": {"molecular_target": "ROS1 (human) (UniProt P08922)"}, "[35]": {"molecular_target": "RPS6KA2 KD2 (human) (UniProt Q15349)"}, "[36]": {"molecular_target": "SIK1 (human) (UniProt P57059)"}, "[37]": {"molecular_target": "STK39 (human) (UniProt Q9UEW8)"}, "[38]": {"molecular_target": "TTK (human) (UniProt P33981)"}, "[39]": {"molecular_target": "TYK2 JH2 pseudokinase (human) (UniProt P29597)", "sequence (P29597 whole entry, looked up)": "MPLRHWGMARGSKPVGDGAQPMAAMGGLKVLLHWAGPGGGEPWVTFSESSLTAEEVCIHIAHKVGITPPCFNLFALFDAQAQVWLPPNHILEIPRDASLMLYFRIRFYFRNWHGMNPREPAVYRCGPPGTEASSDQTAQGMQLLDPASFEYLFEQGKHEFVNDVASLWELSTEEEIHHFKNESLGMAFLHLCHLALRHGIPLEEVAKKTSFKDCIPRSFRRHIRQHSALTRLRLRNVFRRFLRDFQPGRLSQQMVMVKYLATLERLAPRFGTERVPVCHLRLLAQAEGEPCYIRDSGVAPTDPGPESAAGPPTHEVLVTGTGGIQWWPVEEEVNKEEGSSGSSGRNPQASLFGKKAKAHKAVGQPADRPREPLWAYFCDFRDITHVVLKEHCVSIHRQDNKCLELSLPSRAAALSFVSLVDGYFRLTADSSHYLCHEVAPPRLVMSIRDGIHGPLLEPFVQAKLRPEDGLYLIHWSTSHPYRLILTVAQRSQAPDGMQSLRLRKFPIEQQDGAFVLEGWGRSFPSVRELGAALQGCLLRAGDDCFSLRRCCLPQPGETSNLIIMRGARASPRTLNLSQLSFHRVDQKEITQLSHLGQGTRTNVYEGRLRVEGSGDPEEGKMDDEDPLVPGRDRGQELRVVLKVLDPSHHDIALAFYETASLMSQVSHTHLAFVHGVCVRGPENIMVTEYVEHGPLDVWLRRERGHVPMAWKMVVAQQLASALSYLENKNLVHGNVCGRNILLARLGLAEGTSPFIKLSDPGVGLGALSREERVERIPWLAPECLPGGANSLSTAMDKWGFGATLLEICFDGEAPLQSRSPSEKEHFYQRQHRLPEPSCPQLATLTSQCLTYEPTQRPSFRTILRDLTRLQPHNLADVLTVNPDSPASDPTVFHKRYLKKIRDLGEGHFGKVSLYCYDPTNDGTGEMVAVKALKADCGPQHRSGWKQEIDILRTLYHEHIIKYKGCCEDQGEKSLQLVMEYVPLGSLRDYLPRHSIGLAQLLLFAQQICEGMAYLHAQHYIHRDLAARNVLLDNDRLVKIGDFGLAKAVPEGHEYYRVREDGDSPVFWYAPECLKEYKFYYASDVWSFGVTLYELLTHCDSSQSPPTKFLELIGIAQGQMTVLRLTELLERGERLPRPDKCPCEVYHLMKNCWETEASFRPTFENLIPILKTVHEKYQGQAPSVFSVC"}, "[40]": {"molecular_target": "YSK4 (human) (UniProt Q56UN5)"}}, "note": "pKd: −log10 of the molar value.", "data": [{"smiles": "COc1cc2ncnc(Oc3cccc(NC(=O)Nc4cc(C(C)(C)C(F)(F)F)on4)c3)c2cc1OC", "values": [{"measurement": "pKd", "setting": "[1]", "value": 8.00}, {"measurement": "pKd", "setting": "[2]", "value": 7.85}, {"measurement": "pKd", "setting": "[3]", "value": 8.12}, {"measurement": "pKd", "setting": "[4]", "value": 4.52}, {"measurement": "pKd", "setting": "[5]", "value": 6.57}, {"measurement": "pKd", "setting": "[6]", "value": 6.03}, {"measurement": "pKd", "setting": "[7]", "value": 4.59}, {"measurement": "pKd", "setting": "[8]", "value": 7.15}, {"measurement": "pKd", "setting": "[9]", "value": 5.52}, {"measurement": "pKd", "setting": "[10]", "value": 6.64}, {"measurement": "pKd", "setting": "[11]", "value": 7.66}, {"measurement": "pKd", "setting": "[12]", "value": 7.70}, {"measurement": "pKd", "setting": "[13]", "value": 6.89}, {"measurement": "pKd", "setting": "[14]", "value": 4.54}, {"measurement": "pKd", "setting": "[15]", "value": 5.33}, {"measurement": "pKd", "setting": "[16]", "value": 6.00}, {"measurement": "pKd", "setting": "[17]", "value": 7.47}, {"measurement": "pKd", "setting": "[18]", "value": 5.15}, {"measurement": "pKd", "setting": "[19]", "value": 5.08}, {"measurement": "pKd", "setting": "[20]", "value": 4.96}, {"measurement": "pKd", "setting": "[21]", "value": 7.08}, {"measurement": "pKd", "setting": "[22]", "value": 7.25}, {"measurement": "pKd", "setting": "[23]", "value": 6.41}, {"measurement": "pKd", "setting": "[24]", "value": 7.00}, {"measurement": "pKd", "setting": "[25]", "value": 5.68}, {"measurement": "pKd", "setting": "[26]", "value": 7.47}, {"measurement": "pKd", "setting": "[27]", "value": 6.00}, {"measurement": "pKd", "setting": "[28]", "value": 5.66}, {"measurement": "pKd", "setting": "[29]", "value": 4.52}, {"measurement": "pKd", "setting": "[30]", "value": 4.55}, {"measurement": "pKd", "setting": "[31]", "value": 4.55}, {"measurement": "pKd", "setting": "[32]", "value": 4.72}, {"measurement": "pKd", "setting": "[33]", "value": 4.80}, {"measurement": "pKd", "setting": "[34]", "value": 5.60}, {"measurement": "pKd", "setting": "[35]", "value": 4.48}, {"measurement": "pKd", "setting": "[36]", "value": 5.74}, {"measurement": "pKd", "setting": "[37]", "value": 4.43}, {"measurement": "pKd", "setting": "[38]", "value": 5.77}, {"measurement": "pKd", "setting": "[39]", "value": 4.80}, {"measurement": "pKd", "setting": "[40]", "value": 8.43}]}]}
